Measurements reported in patent publication US4452982A, “Process for the preparation of nitrogen-bridgehead condensed pyrimidine compounds, and pharmaceutical compositions containing them” (Chinoin Gyogyszer es Vegyeszeti Termekek Gyara R.T., priority 1979, dated 1984).

Columns and labels:
[1] = system: allergic reactions; experiment: PCA test-method (Ovary), antiallergic activity; format: in vivo; settings: for ED50: iv
Method: The test is carried out by the PCA test-method (Ovary: J. Immun. 81, 355 (1958)) and the Church-test (British J. Pharm. 46, 56-66 (1972); Immunology 29, 527-534 (1975)) and for comparison disodium chromoglycate is used.

[2] = system: allergic symptoms; settings: antiasthmatic agent, cited from earlier work

Row | Compound | ED50 [1] [µmol/kg] | oral activity / route of effectiveness ([1]; oral vs. intravenous, conclusion from Table I) | effect by inhaler (background statement) ([2]; inhaler) | oral activity (background statement) ([2]; orally)
1 | O=C(O)c1cc(=O)c2c(OCC(O)COc3cccc4oc(C(=O)O)cc(=O)c34)cccc2o1 [disodium chromoglycolate] | 1 | effective only when administered intravenously | produces the desired effect only by using an inhaler | not active orally
2 | CC1CC=C(Nc2ccccc2)c2ncc(C(=O)O)c(=O)n21 (stereo not drawn) [9-anilino-6-methyl-4-oxo-6,7-dihydro-4H-pyrido[1,2-a]pyrimidine-3-carboxylic acid] | 1.3 | – | – | –
3 | Cc1ccccc1NC1=CCC(C)n2c1ncc(C(=O)O)c2=O (stereo not drawn) [6-methyl-9-(2-methylphenylamino)-4-oxo-6,7-dihydro-4H--pyrido[1,2-a]pyrimidine-3-carboxylic acid] | 5.4 | – | – | –
